Reference: US10160748B2 (AbbVie Inc., priority 2015, dated 2018)

target: TNFα trimer (Homo sapiens, UniProt P01375); test: TNFα FP Competitive Binding Assay; details: FP binding assay; 20 nM TNFα trimer, 1 nM OregonGreen488 probe; read-out: TNF IC50
How it was run: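 Fluorescence polarization competition: 20 nM TNFα trimer with 1 nM fluorescein-labelled probe in HEPES/NaCl/EDTA/Triton X-100 buffer, compound in 12-point 1:3 dilutions (final top 338 μM or 100 μM). Incubated 18-24 h, background-subtracted mP read, variable-slope dose-response fitting.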

TNFα trimer, sequence (P01375 77-233 limits assumed): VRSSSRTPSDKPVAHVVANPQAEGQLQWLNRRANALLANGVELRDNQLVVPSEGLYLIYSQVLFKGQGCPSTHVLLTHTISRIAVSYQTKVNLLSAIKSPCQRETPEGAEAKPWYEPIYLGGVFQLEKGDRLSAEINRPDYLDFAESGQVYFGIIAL

Compound | IC50 [nM]
CC(=O)N1CCN(c2ncc(-c3ccc4c(=O)n(C)n(Cc5cn(CCO)cc5C(F)(F)F)c4c3)cn2)C[C@H]1C [Example 64, (R)-6-(2-(4-Acetyl-3-methylpiperazin-1-yl)pyrimidin-5-yl)-1-((1-(2-hydroxyethyl)-4-(trifluoromethyl)-1H-pyrrol-3-yl)methyl)-2-methyl-1H-indazol-3(2H)-one] | < 1000
CC(=O)N1CCN(c2ncc(-c3ccc4c(=O)n(C)n(Cc5c(CO)cccc5OC(F)F)c4c3)cn2)[C@H](C)C1 [Example 65, (R)-6-(2-(4-acetyl-2-methylpiperazin-1-yl)pyrimidin-5-yl)-1-(2-(difluoromethoxy)-6-(hydroxymethyl)benzyl)-2-methyl-1H-indazol-3(2H)-one] | < 1000
Cn1c(=O)c2ccc(-c3cnc(N4CCN5C(=O)NC[C@@H]5C4)nc3)cc2n1Cc1c(CO)cccc1OC(F)F [Example 66, (R)-7-(5-(1-(2-(difluoromethoxy)-6-(hydroxymethyl)benzyl)-2-methyl-3-oxo-2,3-dihydro-1H-indazol-6-yl)pyrimidin-2-yl)hexahydroimidazo[1,5-a]pyrazin-3(2H)-one] | < 1000
CN(C)C(=O)OCc1ccc(OC(F)F)c(Cn2c3cc(-c4cnc(N5CCN6C(=O)NC[C@@H]6C5)nc4)ccc3c(=O)n2C)c1 [Example 67, (R)-4-(Difluoromethoxy)-3-((2-methyl-3-oxo-6-(2-(3-oxohexahydroimidazo[1,5-a]pyrazin-7(1H)-yl)pyrimidin-5-yl)-2,3-dihydro-1H-indazol-1-yl)methyl)benzyldimethylcarbamate] | < 1000
Cn1c(=O)c2ccc(-c3cnc(N4CCN5C(=O)NC[C@@H]5C4)nc3)cc2n1Cc1cc(CC#N)ccc1OC(F)F [Example 68, (R)-2-(4-(Difluoromethoxy)-3-((2-methyl-3-oxo-6-(2-(3-oxohexahydromidazo[1,5-a]pyrazin-7(1H)-yl)pyrimidin-5-yl)-2,3-dihydro-1H-indazol-1-yl)methyl)phenyl)acetonitrile] | < 1000
Cc1ccc(OC(F)F)c(Cn2c3cc(-c4cnc(N5CCN(C(=O)COP(=O)(O)O)[C@H](C)C5)nc4)ccc3c(=O)n2C)c1 [Example 69, (R)-2-(4-(5-(1-(2-(Difluoromethoxy)-5-methylbenzyl)-2-methyl-3-oxo-2,3-dihydro-1H-indazol-6-yl)pyrimidin-2-yl)-2-methyldihydrogen phosphate] | < 1000
COc1c(-c2cnc(N3CCN(C(=O)CO)[C@H](C)C3)nc2)ccc2c(=O)n(C)n(Cc3ccccc3OC(F)F)c12 [Example 70, (R)-1-(2-(Difluoromethoxy)benzyl)-6-(2-(4-(2-hydroxyacetyl)-3-methylpiperazin-1-yl)pyrimidin-5-yl)-7-methoxy-2-methyl-1H-indazol-3(2H)-one] | < 1000
C[C@@H]1CN(c2ncc(-c3ccc4c(=O)n(C)n(Cc5ccccc5Cl)c4c3C#N)cn2)CCN1C(=O)CO [Example 71, (R)-1-(2-Chlorobenzyl)-6-(2-(4-(2-hydroxyacetyl)-3-methylpiperazin-1-yl)pyrimidin-5-yl)-2-methyl-3-oxo-2,3-dihydro-1H-indazole-7-carbonitrile] | 1000 to 10000
Cn1cc(C(F)(F)F)c(Cn2c3cc(-c4cnc(N5CCN6C(=O)NC[C@H]6C5)nc4)ccc3c(=O)n2C)n1 [Example 72, (S)-7-(5-(2-methyl-1-((1-methyl-4-(trifluoromethyl)-1H-pyrazol-3-yl)methyl)-3-oxo-2,3-dihydro-1H-indazol-6-yl)pyrimidin-2-yl)hexahydroimidazo[1,5-a]pyrazin-3(2H)-one] | 1000 to 10000
CC(=O)N1CCN(c2ncc(-c3ccc4c(=O)n(C)n(Cc5nc(C)ccc5C(F)(F)F)c4n3)cn2)C[C@H]1C [Example 73, (R)-6-(2-(4-Acetyl-3-methylpiperazin-1-yl)pyrimidin-5-yl)-2-methyl-1-((6-methyl-3-(trifluoromethyl)pyridin-2-yl)methyl)-1H-pyrazolo[3,4-b]pyridin-3(2H)-one] | < 1000
CC(=O)N1CCN(c2ncc(-c3ccc4c(=O)n(C)n(Cc5nc(C)ccc5C(F)(F)F)c4c3)cn2)[C@H](C)C1 [Example 74, (R)-6-(2-(4-Acetyl-2-methylpiperazin-1-yl)pyrimidin-5-yl)-2-methyl-1-((6-methyl-3-(trifluoromethyl)pyridin-2-yl)methyl)-1H-indazol-3(2H)-one] | < 1000
CC(=O)N1CCN(c2ncc(-c3ccc4c(=O)n(C)n(Cc5nc(C)ccc5OC(F)F)c4c3)cn2)C[C@H]1C [Example 75, (R)-6-(2-(4-Acetyl-3-methylpiperazin-1-yl)pyrimidin-5-yl)-1-((3-(difluoromethoxy)-6-methylpyridin-2-yl)methyl)-2-methyl-1H-indazol-3(2H)-one] | < 1000
Cc1ccc(OC(F)F)c(Cn2c3cc(-c4cnc(N5CCN(C(=O)CO)[C@H](C)C5)nc4)ccc3c(=O)n2C)n1 [Example 76, (R)-1-((3-(Difluoromethoxy)-6-methylpyridin-2-yl)methyl)-6-(2-(4-(2-hydroxyacetyl)-3-methylpiperazin-1-yl)pyrimidin-5-yl)-2-methyl-1H-indazol-3(2H)-one] | < 1000
COCc1cccc(OC(F)F)c1Cn1c2cc(-c3cnc(C(C)(C)O)nc3)ccc2c(=O)n1C [Example 77, 1-(2-(Difluoromethoxy)-6-(methoxymethyl)benzyl)-6-(2-(2-hydroxypropan-2-yl)pyrimidin-5-yl)-2-methyl-1H-indazol-3(2H)-one] | 1000 to 10000
C[C@@H]1CN(C(=O)CO)CCN1c1ncc(-c2ccc3c(=O)n(C)n(Cc4cc(CC#N)ccc4OC(F)F)c3c2)cn1 [Example 78, (R)-2-(4-(difluoromethoxy)-3-((6-(2-(4-(2-hydroxyacetyl)-2-methylpiperazin-1-yl)pyrimidin-5-yl)-2-methyl-3-oxo-2,3-dihydro-1H-indazol-1-yl)methyl)phenyl)acetonitrile] | < 1000
Cn1c(=O)c2ccc(-c3cnc(N4CCN5C(=O)OC[C@H]5C4)nc3)cc2n1Cc1cc(CC#N)ccc1OC(F)F [Example 79, (R)-2-(4-(Difluoromethoxy)-3-((2-methyl-3-oxo-6-(2-(3-oxotetrahydro-1H-oxazolo[3,4-a]pyrazin-7(3H)-yl)pyrimidin-5-yl)-2,3-dihydro-1H-indazol-1-yl)methyl)phenyl)acetonitrile] | < 1000
Cc1ccc(OC(F)F)c(Cn2c3nc(-c4cnc(N5CCN(C(=O)CO)C[C@H]5C)nc4)ccc3c(=O)n2C)c1 [Example 80, (R)-1-(2-(Difluoromethoxy)-5-methylbenzyl)-6-(2-(4-(2-hydroxyacetyl)-2-methylpiperazin-1-yl)pyrimidin-5-yl)-2-methyl-1H-pyrazolo[3,4-b]pyridin-3(2H)-one] | < 1000
Cc1ccc(Cl)c(Cn2c3nc(-c4cnc(N5CCN(C(=O)CO)C[C@H]5C)nc4)ccc3c(=O)n2C)c1 [Example 81, (R)-1-(2-Chloro-5-methylbenzyl)-6-(2-(4-(2-hydroxyacetyl)-2-methylpiperazin-1-yl)pyrimidin-5-yl)-2-methyl-1H-pyrazolo[3,4-b]pyridin-3(2H)-one] | < 1000
CC(=O)N1CCN(c2ncc(-c3ccc4c(=O)n(C)n(Cc5ccc(C)cc5SC(F)F)c4c3)cn2)C[C@H]1C [Example 82, (R)-6-(2-(4-Acetyl-3-methylpiperazin-1-yl)pyrimidin-5-yl)-1-(2-((difluoromethyl)thio)-4-methylbenzyl)-2-methyl-H-indazol-3(2H)-one] | < 1000
